Experiments:
[1] = Qualitative solubility testing of the test article in the test system; format: physicochemical; settings: aqueous buffer; pH 7.4, potassium phosphate buffer, MgCl2, EDTA, human liver microsomes 0.0125 mg/mL; read-out: Soluble in the test system (visual comparison)
Description: Since stability of the test article solutions is not known, the stock solution and dilutions to working solutions are prepared fresh on the day of use.

[2] = cited from earlier work
[3] = cited from earlier work; for Efficacy in MDD trials: phase 2 / phase 2b trials in MDD
CYP2A6 = target: T1, CYP2A6 (Homo sapiens, UniProt P11509); test: Inhibition of CYP2A6 coumarin 7-hydroxylation in human liver microsomes (direct, time- and metabolism-dependent); settings: both, pH 7.4
T1 sequence (P11509 1-494): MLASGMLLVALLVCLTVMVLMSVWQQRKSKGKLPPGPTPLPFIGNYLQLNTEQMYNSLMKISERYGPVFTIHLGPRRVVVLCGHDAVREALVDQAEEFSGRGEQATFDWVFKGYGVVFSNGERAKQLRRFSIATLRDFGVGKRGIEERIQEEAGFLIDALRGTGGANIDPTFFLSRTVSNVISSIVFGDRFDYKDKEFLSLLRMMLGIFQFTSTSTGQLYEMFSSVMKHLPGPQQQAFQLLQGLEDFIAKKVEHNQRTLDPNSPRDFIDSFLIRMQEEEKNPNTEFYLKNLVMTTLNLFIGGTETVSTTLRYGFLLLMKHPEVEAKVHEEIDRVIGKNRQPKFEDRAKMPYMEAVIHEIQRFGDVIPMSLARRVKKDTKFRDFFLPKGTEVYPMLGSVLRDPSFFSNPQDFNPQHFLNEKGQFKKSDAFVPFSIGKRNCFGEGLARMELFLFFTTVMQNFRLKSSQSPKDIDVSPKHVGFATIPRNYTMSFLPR
Description: Known direct and metabolism-dependent inhibitors of CYP2A6 are included as positive controls.
Human liver microsomes from non-transplantable, donated livers are prepared and characterized at the testing facility as outlined by Pearce, R. et al., “Effects of Freezing, Thawing, and Storing Human Liver Microsomes on Cytochrome P450 Activity,” Archives of Biochemistry and Biophysics, 1996, 331 (2), 145-169 and Parkinson, A. et al., “The Effects of Gender, Age, Ethnicity and Liver Cirrhosis on Cytochrome P450 Enzyme Activity in Human Liver Microsomes and Inducibility in Cultured Human Hepatocytes,” Toxicology and Applied Pharmacology, 2004, 199 (3), 193-209. A mixed-gender pool of 200 individual human liver microsomal samples is used for this study (Sekisui XenoTech catalog number: H2610). The kinetic constants (S50 or Km) used to select marker substrate concentrations and incubation conditions are determined previously.
Incubation mixtures are prepared in bulk to obviate the need for directly pipetting very small volumes (i.e., 1 μL or less). The test article is dissolved in water and added directly to incubation mixtures.
A Tecan liquid handling system conducts all incubations. Duplicate aliquots of the buffer mixtures are automatically added to 96-well plates at the appropriate locations. […] The supernatant fractions are analyzed by liquid chromatography tandem mass spectrometry (LC-MS/MS). […]

[4] = cited from earlier work; for Help in smoking cessation: reported, nortriptyline as the sole pharmacotherapy

Which results are given for `Clc1ccc([C@]23CNC[C@H]2C3)cc1Cl` [Amitifadine, (1R,5S)-1-(3,4-dichlorophenyl)-3-azabicyclo[3.1.0]hexane]?
solubility [1]: ≥ 200 µM; Effect size in depression ([2]; depression): 0.6; Tolerability ([2]; given by mouth twice daily for up to 12 weeks): good tolerability

With `COC[C@@H]1[C@@H](c2ccc(Cl)c(Cl)c2)C[C@@H]2CC[C@H]1N2` [GSK-372475] as the compound, how does the “Efficacy in MDD trials” value [3] read?
Its value is “failed”.

With `CN1Cc2cc(-c3ccc(N)nn3)ccc2[C@H](c2ccc3ccccc3c2)C1` [Liafensine] as the compound, how does the “Efficacy in treatment resistant depression versus active comparators” value ([3]; two large phase 2b trials in TRD) read?
Its value is “no different from full-dose escitalopram (an SSRI) or duloxetine (an SNRI)”.

Which inhibition at 5 min, 300 µM (CYP2A6) does the source give for `CN1CCCC1c1cccnc1` (centres unmarked) [Nicotine] here?
The inhibition at 5 min, 300 µM was 82.5%.

With `N[C@@H]1CC[C@@H](c2ccc(Cl)c(Cl)c2)c2ccccc21` [SEP-225289] as the compound, how does the “Efficacy in MDD trials” value [3] read?
The value was “failed to differentiate versus the comparators”.

Which “Help in smoking cessation” value [4] does the source give for `CNCCC=C1c2ccccc2CCc2ccccc21` [nortriptyline] here?
The value was “increases long-term smoking cessation”.

Which “One year abstinence rate” value ([4]; smoking cessation) does the source give for `c1cnc2cc3c(cc2n1)[C@@H]1CNC[C@H]3C1` [varenicline] here?
The value was 23%.

And the 6-month abstinence rate ([4]; smoking cessation, placebo 10.6%)?
Its 6-month abstinence rate is 27.6%.

With `COc1ccc(C(CN(C)C)C2(O)CCCCC2)cc1` (centres unmarked) [venlafaxine] as the compound, how does the “Help in smoking cessation” value [4] read?
Its value is “has not been shown to help”.

Source: patent US20200054601A1, “NOVEL METHODS” (Ethismos Research, Inc., priority 2018, published 2020)
